Data from the NIST ThermoML archive (doi:10.1021/je050183a).
± gives the expanded uncertainty stated by the source.

Tests used:
[1] = xn = mol fraction of the nth substance listed; details: 298.15 K, 101 kPa, Liquid; for viscosity: Capillary tube (Ostwald / Ubbelohde) method; for speed of sound: Linear variable-path acoustic interferometer; for mass density: Pycnometric method
[2] = refractive index (Na D-line) (dimensionless); xn = mol fraction of the nth substance listed; details: 298.15 K, 101 kPa, Liquid, Standard Abbe refractometry

CC1OC(C)OC(C)O1 (centres undefined) [2,4,6-trimethyl-1,3,5-trioxane] + CCOC(=O)OCC
Details | mass density, [1] [kg/m3] | refractive index, [2] | speed of sound, [1] [m/s] | viscosity, [1] [mPa·s]
x1 = 0.0215 | 969.57 ± 1.3 | 1.3835 ± 0.0008 | 1173.8 ± 2.7 | –
x1 = 0.0425 | 969.99 ± 1.3 | 1.384 ± 0.0008 | 1174.2 ± 2.7 | –
x1 = 0.0615 | 970.36 ± 1.3 | 1.3844 ± 0.0008 | 1174.5 ± 2.7 | –
x1 = 0.0816 | 970.76 ± 1.3 | 1.3848 ± 0.0008 | 1174.8 ± 2.6 | –
x1 = 0.1036 | 971.19 ± 1.3 | 1.3853 ± 0.0008 | 1175 ± 2.6 | –
x1 = 0.1911 | 972.92 ± 1.4 | 1.3873 ± 0.0008 | 1175.6 ± 2.6 | –
x1 = 0.317 | 975.41 ± 1.4 | 1.3901 ± 0.0008 | 1175.3 ± 2.6 | –
x1 = 0.4272 | 977.57 ± 1.4 | 1.3926 ± 0.0008 | 1174.4 ± 2.6 | 0.836 ± 0.011
x1 = 0.5162 | 979.28 ± 1.4 | 1.3945 ± 0.0008 | 1173.5 ± 2.6 | 0.854 ± 0.011
x1 = 0.608 | 981 ± 1.3 | 1.3963 ± 0.0008 | 1172.6 ± 2.6 | 0.878 ± 0.012
x1 = 0.7032 | 982.74 ± 1.3 | 1.3982 ± 0.0008 | 1171.9 ± 2.6 | 0.913 ± 0.012
x1 = 0.7984 | 984.41 ± 1.3 | 1.3999 ± 0.0008 | 1171.5 ± 2.6 | 0.962 ± 0.013
x1 = 0.8957 | 986.04 ± 1.3 | 1.4015 ± 0.0008 | 1171.8 ± 2.6 | 1.028 ± 0.014
x1 = 1 | 988.35 ± 1.3 | 1.4029 ± 0.0008 | 1174.5 ± 2.6 | 1.107 ± 0.015
